The values below come from publication PMC6152004 (Molecules : A Journal of Synthetic Chemistry and Natural …, 2017).

Where two headings read alike, the source gives them in different places. Where only a bound is given, the exact number is not on record here.

For one assay, the system named is AChE. The conditions noted are these: cited from earlier work; for IC50: read-out: AChE IC50.
The next assay has as its system BChE. The conditions noted are these: read-out: BChE IC50; cited from earlier work.
The target of assay [1] is T1, human blood acetylcholinesterase (AChE) (Homo sapiens, UniProt P22303).
T1 construct: Red blood cell lysate was used as a source of AChE and human plasma as a source of BChE; from tissue; host or cells: human erythrocytes (lysate) from freshly drawn blood of healthy volunteers
T1 sequence (P22303 32-617 isoform P22303-2 limits assumed): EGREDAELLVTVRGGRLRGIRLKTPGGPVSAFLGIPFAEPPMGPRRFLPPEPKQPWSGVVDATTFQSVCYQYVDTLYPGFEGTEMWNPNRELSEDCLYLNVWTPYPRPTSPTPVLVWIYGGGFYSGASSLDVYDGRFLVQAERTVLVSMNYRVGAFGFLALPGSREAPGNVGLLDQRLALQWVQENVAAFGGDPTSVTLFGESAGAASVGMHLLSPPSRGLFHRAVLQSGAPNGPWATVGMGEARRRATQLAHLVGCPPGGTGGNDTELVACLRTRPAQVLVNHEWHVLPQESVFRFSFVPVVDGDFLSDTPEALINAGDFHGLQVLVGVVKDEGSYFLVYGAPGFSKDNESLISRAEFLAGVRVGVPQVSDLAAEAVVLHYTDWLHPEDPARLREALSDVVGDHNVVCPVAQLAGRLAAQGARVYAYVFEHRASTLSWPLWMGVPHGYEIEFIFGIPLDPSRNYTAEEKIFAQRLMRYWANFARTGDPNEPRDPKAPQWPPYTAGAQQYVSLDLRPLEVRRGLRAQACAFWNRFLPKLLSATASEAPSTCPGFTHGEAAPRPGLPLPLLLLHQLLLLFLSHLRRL
Description: AChE inhibition, modified Ellman's method, red blood cell lysate. Type of assay: biochemical. (In Ellman's method for cholinesterases, released thiocholine reacts with DTNB.)

Assay [2] addresses human plasma butyrylcholinesterase (BChE) (Homo sapiens, UniProt P06276). Description: biochemical.
Assay [3] has as its target T2, recombinant prolyl oligopeptidase (POP) (Homo sapiens, UniProt P48147).
T2 construct: purchased Sigma-Aldrich (Prague, Czech Republic)
T2 sequence (P48147 1-710): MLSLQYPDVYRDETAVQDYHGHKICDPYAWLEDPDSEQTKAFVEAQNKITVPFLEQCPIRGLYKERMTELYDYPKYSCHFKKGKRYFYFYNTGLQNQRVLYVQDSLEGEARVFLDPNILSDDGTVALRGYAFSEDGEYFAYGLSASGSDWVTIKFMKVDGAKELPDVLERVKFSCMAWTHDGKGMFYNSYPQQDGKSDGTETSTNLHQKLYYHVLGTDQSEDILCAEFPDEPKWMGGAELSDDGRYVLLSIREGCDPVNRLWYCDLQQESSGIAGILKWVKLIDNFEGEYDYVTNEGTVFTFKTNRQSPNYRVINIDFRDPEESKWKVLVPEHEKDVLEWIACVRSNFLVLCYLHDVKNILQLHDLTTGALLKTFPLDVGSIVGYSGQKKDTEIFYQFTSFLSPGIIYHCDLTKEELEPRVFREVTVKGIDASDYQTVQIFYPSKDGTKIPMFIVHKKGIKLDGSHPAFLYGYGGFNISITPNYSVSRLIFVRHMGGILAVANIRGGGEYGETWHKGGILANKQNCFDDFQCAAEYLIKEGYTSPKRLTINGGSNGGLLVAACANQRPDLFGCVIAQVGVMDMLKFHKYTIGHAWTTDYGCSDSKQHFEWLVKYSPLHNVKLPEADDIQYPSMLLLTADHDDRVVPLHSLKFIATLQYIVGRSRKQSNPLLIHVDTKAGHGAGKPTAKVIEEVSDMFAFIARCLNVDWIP
Description: Prolyl oligopeptidase assay, substrate Z-Gly-Pro-p-nitroanilide. Type of assay: biochemical.

The target of assay [4] is T2, recombinant prolyl oligopeptidase (POP). The following applies: tested previously; cited from earlier work.
Where [5] appears, read: isolated from Fumaria vaillantii, review of Sener and Orhan.

Sequence of human plasma butyrylcholinesterase (BChE) (P06276 29-602): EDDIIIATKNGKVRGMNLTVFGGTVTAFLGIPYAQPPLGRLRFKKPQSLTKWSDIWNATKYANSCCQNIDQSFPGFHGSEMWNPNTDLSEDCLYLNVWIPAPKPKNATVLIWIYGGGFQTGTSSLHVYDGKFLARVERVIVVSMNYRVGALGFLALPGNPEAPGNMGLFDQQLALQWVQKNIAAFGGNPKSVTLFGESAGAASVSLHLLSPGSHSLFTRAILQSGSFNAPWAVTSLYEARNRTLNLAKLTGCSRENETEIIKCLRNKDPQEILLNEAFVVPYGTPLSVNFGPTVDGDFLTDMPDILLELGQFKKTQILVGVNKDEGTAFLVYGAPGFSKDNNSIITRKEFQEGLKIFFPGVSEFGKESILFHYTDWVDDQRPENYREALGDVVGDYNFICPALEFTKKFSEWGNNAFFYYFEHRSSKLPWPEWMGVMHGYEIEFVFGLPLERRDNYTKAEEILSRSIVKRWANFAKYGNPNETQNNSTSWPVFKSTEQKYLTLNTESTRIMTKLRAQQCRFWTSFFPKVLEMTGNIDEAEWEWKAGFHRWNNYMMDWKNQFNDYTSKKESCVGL

Broadly, the IC50 is the point on the concentration scale where inhibition reaches its midpoint. As to `COc1cc2c(cc1O)C(Cc1ccc(O)cc1)N(C)CC2` (single isomer, unassigned; (+)) [(+)-N-methylcoclaurine], the IC50 is above 220 µM with AChE and 15 ± 1.4 µM in the assay with BChE.

In the case of `COc1ccc(CC2c3cc4c(cc3CCN2C)OCO4)c(C=O)c1OC` (single isomer, unassigned; (+)) [canadaline, (+)-canadaline], the IC50 in the assay with AChE is 20.1 µM.

Take `COc1ccc(C[C@H]2c3cc(O)c(OC)cc3CCN2C)cc1O` [(+)-reticuline]: the IC50 in the assay with AChE is above 220 µM; with BChE it was 33.6 ± 3 µM.

Regarding `COc1cc2c(cc1O)[C@@H]1Cc3cc4c(cc3[C@H](C2)N1C)OCO4` [(–)-caryachine], the IC50 in the assay with AChE is 19.6 ± 0.4 µM.

Take `COc1cc2c(cc1OC)[C@@H]1Cc3cc(OC)c(OC)cc3[C@H](C2)N1C` [Compound 3, (–)-argemonine]: the IC50 in assay [1] was above 1000 µM; in assay [2], 885 ± 119 µM; in assay [3], 337 ± 83.1 µM.

`COc1ccc2c(c1OC)CN(C)CCc1cc3c(cc1C(=O)C2)OCO3` [Compound 4, allocryptopine]: the IC50 in assay [1] was 250 ± 25 µM; in assay [2], 530 ± 28.2 µM; in assay [3] it was above 1000 µM; with AChE (setting [5]) it was 1.3 µM.

On to `COc1cc2c(cc1OC)[C@@H]1Cc3ccc(OC)c(O)c3[C@H](C2)N1C` [Compound 5, (–)-platycerine], for which the IC50 is 224 ± 19.6 µM in assay [1], above 1000 µM in assay [2] and 687 ± 74 µM in assay [4].

`COc1cc2c(cc1O)[C@@H]1Cc3ccc(OC)c(O)c3[C@H](C2)N1C` [Compound 6, (–)-munitagine]: the values for the IC50 in assay [1], in assay [2] and in assay [3] were 62.3 ± 5.8 µM, 837 ± 23 µM and 277 ± 31.3 µM, respectively.

For the compound `COc1cc2c(cc1O)[C@@H]1Cc3cc(OC)c(OC)cc3[C@H](C2)N1C` [Compound 7, (–)-norargemonine], the IC50 in assay [1] is 205 ± 11.7 µM; in assay [2] it was above 1000 µM.

On to (–)-californidine, for which the IC50 with AChE was 36.7 ± 0.9 µM.

protopine [Compound 2]: the “Type of AChE inhibition” value in the assay on AChE is “dose-dependent, specific, reversible and competitive AChE inhibitor”. The IC50 in the assay on AChE (setting [5]) was 1.8 µM.
